Experimental data: US20250354117A1, “METHODS OF GENERATING NATURAL KILLER CELLS FROM PLURIPOTENT STEM CELLS AND COMPOSITIONS THEREOF” (THE CHILDREN'S MEDICAL CENTER CORPORATION, priority 2022, published 2025)
“Also recorded” adds a separate entry of the source.

Columns and labels:
[1] = system: CD34+ umbilical cord blood HSPCs; test: In vitro T cell differentiation (Notch-based, stroma-free) of CRISPR/Cas9 RNP-edited HSPCs, flow cytometry; set-up: species or system human; settings: six weeks of in vitro differentiation, Cas9 RNP knockout of EHMT1, n=3; for CD56+CD3− natural killer (NK) cells (fractional abundance within CD45+DAPI− population): AAVS1-targeting gRNA control: 1.2±0.45%; for CD56−CD3+ T cells (fractional abundance within CD45+DAPI− population): AAVS1-targeting gRNA control: 38.7±12.5%
Protocol: Genetic knockouts of select genes were generated in primary hematopoietic stem and progenitor cells (HSPCs) via nucleofection of CRISPR/Cas9 ribonucleoproteins (RNPs). Two independent knockouts were generated for each gene using separate gRNAs and knockouts were replicated across two different donor pools of human umbilical cord blood. First, CD34+ cord blood cells (AllCells) were thawed via dropwise addition of RPMI 1640+10% FBS. Cells were centrifuged at 200 g for 8 minutes and subsequently washed with FACS buffer (PBS+2% FBS). Cells were cultured for 48 hours prior to nucleofection at a density of 250,000 cells/mL in SFEM II™ media (StemCell Technologies) supplemented with 100 ng/mL SCF, TPO, FLT3L, and IL-6 (Peprotech) within a 5% O2, 5% CO2, 37° C. incubator. Next, the top two protospacer sequences for each desired gene were selected from the Brunello genome-wide knockout library (Broad Institute) based on the Rule Set 2 score. A control gRNA targeting the AAVS1 locus was designed in Benchling™. All gRNA sequences were synthesized by IDT as an Alt-R CRISPR/Cas9 sgRNA. RNPs were complexed by incubating 105 pmol of Cas9 protein (IDT) with 125 pmol of sgRNA in a 5 uL total volume for 10 minutes at room temperature. CD34+ cord blood HSPCs were washed with FACS buffer and 125,000 cells were resuspended in 20 μL of P3 Primary Cell Nucleofection Solution (Lonza) per nucleofection. RNPs were nucleofected into HSPCs with 3.85 uM electroporation enhancer (IDT) using a 16-reaction nucleovette on a Lonza 4D-Nucleofector (program DZ-100). Cells were cultured for 36-48 hours at 5% O2, 5% CO2 in 96-well U-bottom plates (Corning) then subsequently harvested for genomic DNA extraction and initiation of in vitro differentiation assays.
Following 36-48 hours post-nucleofection of Cas9 RNPs, 5,000 cord blood HSPCs were differentiated to T cell lineages using the StemSpan™ T cell Generation Kit (Stem Cell Technologies) per the manufacturer's instructions with n=3 replicate differentiations per gRNA. Total viable cell counts were performed on Day 14, 28 and 42 of differentiation. T cell development was assessed by flow cytometry on days 14 and 42 of differentiation to assess lymphoid progenitors (CD45, CD5 and CD7) and mature T cells (CD45, CD4, CD8, CD3, CD56, CD5 and CD7), respectively. Cells were stained with propidium iodide as a viability marker and the following antibodies for flow cytometry: CD45 APC-Cy7 (557833, BD Biosciences), CD4 PE-Cy5 (IM2636U, Beckman Coulter Immunotech), CD8-BV421 (RPA-T8, BD Horizon), CD5-BV510 (UCHT2, BD Biosciences), CD3-PE-Cy7 (UCHT1, BD Pharmigen), CD7-PE (555361, BD Pharmigen), CD56 FITC (BD Pharmigen). […]

[2] = system: FKBP12^F36V tagged TRIM28; test: Western-blot for TRIM28 on dTAG knockin iPS clones; assay type: cell-based, human; settings: 500 nM, 24 hours, four iPS clones, vs DMSO
Protocol: FIG. 35A-35F examines rapid and selective degradation of endogenous TRIM28 in human iPS cells. […] An mNeon-FKBP12^F36V open reading frame DNA sequence was knocked into the TRIM28 locus (SEQ ID NO: 32) to tag the N-terminus of TRIM28 and thus create an mNeon-FKBP12^F36V-TRIM28 fusion protein. The knockin was achieved through CRISPR/Cas9-mediated HDR (gRNA, SEQ ID: 31) where the knockin cassette was delivered to cells in an rAAV6 vector. FIG. 35B examines bulk knockin efficiency was assessed with flow cytometry for mNeon five days after simultaneous CRISPR/Cas9 RNP nucleofection and rAAV6 infection of iPS cells (MOI: 50,000 viral genomes/cells). […] The wild-type, unedited locus results in an amplicon of 1,204 bp and the knockin locus generates an amplicon of 2,371 bp. (*) denotes biallelic knockin clones. FIG. 35D analyzes microscopy for DAPI and mNeon on a biallelic knockin iPS clone to visualize nuclear localization of mNeon signal, consistent with the known nuclear localization of endogenous TRIM28 proteins. FIG. 35E examines titration of degrader molecules (dTAG-13 and dTAG^V-1) on a biallelic knockin iPS clone, assayed by flow cytometry for mNeon as a quantitative proxy for TRIM28 protein expression.

[3] = system: CD34+ umbilical cord blood HSPCs; test: UNC0642 treatment during T cell differentiation, flow cytometry; assay type: cell-based, human; settings: continuous treatment 10, 50, 100, 500 nM; 28 days of differentiation; vs DMSO control
Description: Error bars represent the standard deviation across n=3 independent differentiations per dose of UNC0642. *=p<0.05 compared to the DMSO control using a two-tailed Wilcoxon sum-rank test.
Error bars represent standard deviation. N=3 independent differentiation replicates per dose of UNC0642.
CD34+ umbilical cord blood cells (AllCells) were thawed from liquid nitrogen storage and T cell differentiation was immediately initiated with a StemSpan T cell Generation Kit (Stem Cell Technologies, 09940), as described above. Cells were treated with UNC0642 (Cayman Chemical, 14604) over the entire duration of the differentiation and fresh compound was supplemented every 3-4 days to the media. A range of doses were tested (10 nM, 50 nM, 100 nM, and 500 nM) alongside a 0.5% DMSO vehicle control with n=3 replicate differentiations per condition. Cells were collected after 28 days of differentiation to assess NK and T cell populations by flow cytometry.

Row | Compound | CD56+CD3− natural killer (NK) cells (fractional abundance within CD45+DAPI− population) [1] [%] | CD56−CD3+ T cells (fractional abundance within CD45+DAPI− population) [1] [%] | TRIM28 protein degradation [2] | proportion of CD56+CD3− NK cells and CD56−CD3+ T cells [3]
1 | EHMT1 gRNA01: SEQ ID NO: 5, GGGCCGGTGCACAAACAGCG; Alt-R CRISPR/Cas9 sgRNA delivered as Cas9 RNP (guide GGGCCGGUGCACAAACAGCG; IDT Alt-R synthetic sgRNA, modifications not given here) | 35.4±5.7 | 13.9±1.8 | – | –
2 | CC[C@H](C(=O)N1CCCC[C@H]1C(=O)O[C@H](CCc1ccc(OC)c(OC)c1)c1ccccc1OCC(=O)NCCCCCCC(=O)N[C@H](C(=O)N1C[C@H](O)C[C@H]1C(=O)N[C@@H](C)c1ccc(-c2scnc2C)cc1)C(C)(C)C)c1cc(OC)c(OC)c(OC)c1 [dTAG^V-1] | – | – | near-complete degradation | –
3 | EHMT1 gRNA02: SEQ ID NO: 6, TTCGGCTGCTTCCATCAACG; Alt-R CRISPR/Cas9 sgRNA delivered as Cas9 RNP (guide UUCGGCUGCUUCCAUCAACG; IDT Alt-R synthetic sgRNA, modifications not given here) | 58.7±4.9 | 6.6±0.69 | – | –
4 | COc1cc2c(NC3CCN(C(C)C)CC3)nc(N3CCC(F)(F)CC3)nc2cc1OCCCN1CCCC1 [UNC0642] | – | – | – | dose-dependent acquisition of NK cells; also recorded: dose-dependent phenocopy of the EHMT1 CRISPR/Cas9 knockout
